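A five-concentration, 48-hour dose response in 96-well plates underlies each endpoint, interpolated linearly between surrounding concentrations. GI50 is the concentration that inhibits growth by half. TGI marks complete inhibition of growth.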

Assay in all cases: NCI anticancer screen, dose series, 48 h
The test system of experiment [1] is SN12C renal.
Experiment [2] concerns CAKI-1 renal.
Experiment [3] relates to SF-539 CNS.
The subject of experiment [4] is PC-3 prostate.
Experiment [5] has as its system SR leukemia.
Experiment [6] concerns NCI-H226 lung.

On to `CCOC(=O)c1c(-c2ccc(Cl)cc2)c(C#N)c(=S)n(C2OC(CO)C(O)C(O)C2O)c1-c1ccccc1` (stereo not given), for which the TGI in experiment [1] is above 100 µM; in experiment [2], 82.6 µM; in experiment [3] it was 35 µM; in experiment [4], 50.4 µM; in experiment [5], above 100 µM.

With `COCC1OCCN1C` (stereo not given), the TGI in experiment [2], in experiment [6], in experiment [3], in experiment [4] and in experiment [5] was above 100 µM in each case.

As for `CC1=C(C#N)C(=O)N(/N=C/c2ccc(Cl)cc2)C(=O)/C1=c1\o/c(=C2/C(=O)N(/N=C/c3ccc(Cl)cc3)C(=O)C(C#N)=C2C)c2nccnc12`, the TGI in experiment [1], in experiment [2], in experiment [6], in experiment [3], in experiment [4] and in experiment [5] was above 100 µM each time.

Take `COC(=O)c1cccc(C)c1C1CN=NC12Cc1c(ccc(C)c1C)C2=O` (stereo not given): the TGI in experiment [1], in experiment [2], in experiment [6], in experiment [3] and in experiment [5] was above 100 µM in each case.

On to `CC(C(O)c1ccccc1)N(C)/N=N/c1nc2c([nH]1)c(=O)n(C)c(=O)n2C` (stereo not given), for which the TGI in experiment [1], in experiment [2], in experiment [6] and in experiment [4] was above 100 µM in each case.

Regarding `COC(=O)CC1CN(C(=O)OCc2ccccc2)C(C)(C)O1` (stereo not given), the TGI was above 100 µM in experiment [1]; above 100 µM in experiment [2]; 22.7 µM in experiment [6]; above 100 µM in experiment [3]; above 100 µM in experiment [4]; above 100 µM in experiment [5].

For `CC(C)CC(NC(=O)OCc1ccccc1)C(=O)NCCCCC(N)C(=O)NC(CCCCNC(=O)C(CC(C)C)NC(=O)OCc1ccccc1)C(=O)NC(CCCCNC(=O)C(CC(C)C)NC(=O)OCc1ccccc1)C(=O)NC(CCCCNC(=O)C(CC(C)C)NC(=O)OCc1ccccc1)C(=O)NC(CCCCNC(=O)C(CC(C)C)NC(=O)OCc1ccccc1)C(=O)NC(CCCCNC(=O)C(CC(C)C)NC(=O)OCc1ccccc1)C(=O)O` (stereo not given), the TGI in experiment [1], in experiment [6], in experiment [4] and in experiment [5] was above 100 µM throughout.

For the molecule `C/C(=C\c1csc(C)n1)[C@@H]1C[C@@H]2O[C@]2(C)CCC[C@H](C)[C@H](O)[C@@H](C)C(=O)C(C)(C)[C@@H](O)CC(=O)O1` (tested in a mixture with another compound), the TGI in experiment [1] was above 1 µM; in experiment [2] it was above 1 µM; in experiment [6] it was above 1 µM; in experiment [3], 0.0348 µM; in experiment [4], above 1 µM; in experiment [5], above 0.239 µM.

As for `CCC/C(Cl)=N\OC(=O)Nc1ccc(Br)cc1`, the TGI in experiment [1] worked out at 33.8 µM; in experiment [2] it was 5.77 µM; in experiment [6], 44 µM; in experiment [3], 32.9 µM; in experiment [4] it was 28.4 µM; in experiment [5], 18.4 µM.

`Cc1ccc(S(=O)(=O)Oc2coc(CO)cc2=O)cc1`: the TGI was 25.3 µM in experiment [1]; 10.4 µM in experiment [2]; above 100 µM in experiment [6]; 87.8 µM in experiment [3]; 38.2 µM in experiment [4]; above 85.5 µM in experiment [5].

Take `C=CCN1C(=O)N/C(=C\c2ccc(Cl)cc2)C1=O`: the TGI in experiment [1], in experiment [2], in experiment [6] and in experiment [3] was above 100 µM throughout.

Regarding `CCN(CC)CCN1CCN=c2c3cc(OC)ccc3n3cnc4ccc1c2c43`, the TGI in experiment [1] was found to be 3.38 µM; in experiment [2], 2.23 µM; in experiment [6], 5.3 µM; in experiment [3] it was 0.969 µM; in experiment [4], 1.63 µM; in experiment [5], 1.64 µM.

As to `OC1OC(c2ccc[nH]2)C(F)(F)C(F)(F)C1(F)F` (stereo not given), the TGI in experiment [1], in experiment [2], in experiment [6], in experiment [3] and in experiment [4] was above 100 µM throughout.

`O=C(/C=C/c1c(O)c2ccccc2[nH]c1=O)CC(=O)C(=O)Nc1cccc(O)c1`: the TGI in experiment [1], in experiment [2], in experiment [6], in experiment [3] and in experiment [4] was above 100 µM throughout.

Turning to `COc1ccc(-c2cc(=O)c3c(O)c(OC)c(O)cc3o2)cc1O`, the TGI in experiment [1] is above 100 µM; in experiment [2], above 73.2 µM; in experiment [6] it was above 90.8 µM; in experiment [3] it was 21.9 µM; in experiment [4] it was above 88.1 µM.

Regarding `CSC1=N/C(=C\c2ccc(Cl)cc2)C(=O)N1CN1CCOCC1`, the TGI in experiment [1], in experiment [6], in experiment [4] and in experiment [5] was above 100 µM each time.

Take `CCOP(=O)(CCC(O)CNc1nc(N)nc(Cl)c1N=Nc1ccc(Cl)cc1)OCC` (stereo not given): the TGI worked out at 42.7 µM in experiment [1]; 14.5 µM in experiment [2]; 64.5 µM in experiment [6]; 29.7 µM in experiment [4]; 50.3 µM in experiment [5].

In the case of `Cc1ccc2nc(CN3CCCCC3)cc(=O)n2c1`, the TGI in experiment [1], in experiment [2], in experiment [6], in experiment [3], in experiment [4] and in experiment [5] was above 100 µM throughout.

Take `CC(=O)CCC(=O)CC(O)(C(F)(F)F)C(F)(F)F`: the TGI turned out to be 36.5 µM in experiment [1], 24.7 µM in experiment [6], 31.9 µM in experiment [3] and 32 µM in experiment [5].

On to `CO[C@H]1C[C@@H]2CC[C@@H](C)[C@@](O)(O2)C(=O)C(=O)N2CCCC[C@H]2C(=O)O[C@H]([C@H](C)C[C@@H]2CC[C@@H](OC(=O)C(C)(CO)CO)[C@H](OC)C2)CC(=O)[C@H](C)/C=C(\C)[C@@H](O)[C@@H](OC)C(=O)[C@H](C)C[C@H](C)/C=C/C=C/C=C/1C`, for which the GI50 in experiment [1] is 0.497 µM; in experiment [6], 0.0187 µM; in experiment [4], below 0.0487 µM. The TGI in experiment [1] was above 71.3 µM; in experiment [2], above 79.7 µM; in experiment [6], 22.1 µM; in experiment [3] it was 5.23 µM; in experiment [4], above 81.6 µM.

The values are drawn from PubChem BioAssay (NCI).
